In US5191079A, “Quinolinecarboxylic acid derivatives” (priority 1990, dated 1993) one finds MIC, MIC50 and MIC90 data, which are given here for two compounds.

Structures are written as SMILES. In brackets after ≈: the same amount, converted by molar mass. Like-named read-outs stand apart in the source and are kept apart here. Some results are limits rather than exact numbers.

Common to all, as to assay type: cell-based
Test [1] deals with Staphylococcus aureus Terajima (IID 670). In words: MIC, Experiment 1. To be noted: IID670, S. aureus Terajima (IID 670), Gram +, read-out: Min. inhib. concentr. (MIC). The protocol: (§1) The compounds of the present invention (B, E, G, H, M, N, O, P and Q) were each dissolved in dimethylsulfoxide to prepare a solution of 5000 μg/ml in concentration. The compounds of the present invention (I, J and K) and the known compound (Y) were each dissolved in sterilized distilled water to prepare a solution of 5000 μg/ml in concentration. Each solution was diluted with sterilized distilled water to prepare a standard solution with a concentration of each test compound: 1000 μg/ml. The test was carried out by a method as appointed by Japan Society of Chemotherapy [cf. Chemotherapy, 29, 76-79 (1981), TOKYO].
(§2) As to Streptococcus pneumoniae and Streptococcus pyogenes, Brain heart infusion broth (manufactured by DIFCO) was used as the medium for the preculture thereof, and a heart infusion agar medium containing 5% defibrinated horse blood (manufactured by Nissui Seiyaku K. K., Japan) was used as the medium for the measurement of minimum inhibitory concentration (MIC). As to other microorganisms, a sensitivity test broth (manufactured by Nissui Seiyaku K. K.) was used as the medium for the preculture thereof, and a sensitivity test agar medium (manufactured by Nissui Seiyaku K. K.) was used as the medium for the measurement of MIC.

The test system of test [2] is Acinetobacter calcoaceticus Ac 54. The test can be described thus: MIC, Experiment 1. To be noted: AC54, A. calcoaceticus Ac 54, Gram -, read-out: Min. inhib. concentr. (MIC). The protocol:
as §1, §2

Test [3] concerns Escherichia coli NIHJ JC-2. The test can be described thus: MIC, Experiment 1. The following applies: NIHJJC2, E. coli NIHJ JC-2, Gram -, read-out: Min. inhib. concentr. (MIC). The protocol:
as §1, §2

Test [4] deals with Staphylococcus aureus FDA 209P JC-1. The test can be described thus: MIC, Experiment 1. To be noted: FDA209P, S. aureus FDA 209P JC-1, Gram +, read-out: Min. inhib. concentr. (MIC). The protocol: as §1, §2
The subject of test [5] is Klebsiella pneumoniae PCI-602. In words: MIC, Experiment 1. The following applies: PCI602, K. pneumoniae PCI-602, Gram -, read-out: Min. inhib. concentr. (MIC). Here is the method: as §1, §2
Test [6] relates to Staphylococcus aureus Cowan I (IID 975). The test can be described thus: MIC, Experiment 1. To be noted: IID975, S. aureus Cowan I (IID 975), Gram +, read-out: Min. inhib. concentr. (MIC). Here is the method:
as §1, §2

Test [7] relates to Pseudomonas aeruginosa NCTC 10490. In words: MIC, Experiment 1. To be noted: NCTC10490, P. aeruginosa NCTC 10490, Gram -, read-out: Min. inhib. concentr. (MIC). Here is the method: as §1, §2
The test system of the next test is Bacillus cereus IAM 1029. In words: MIC, Experiment 1. The following applies: IAM1029, B. cereus IAM 1029, Gram +, read-out: Min. inhib. concentr. (MIC). The protocol: as §1, §2
Test [8] concerns Streptococcus pneumoniae IID 554. In words: MIC, Experiment 1. The following applies: IID554, S. pneumoniae IID 554, Gram +, agar with 5% defibrinated horse blood, read-out: Min. inhib. concentr. (MIC). Here is the method: as §1, §2
Test [9] deals with Bacillus subtilis ATCC 6633. The test can be described thus: MIC, Experiment 1. To be noted: ATCC6633, B. subtilis ATCC 6633, Gram +, read-out: Min. inhib. concentr. (MIC). Here is the method:
as §1, §2

The test system of test [10] is Staphylococcus aureus ATCC 9144. The test can be described thus: MIC, Experiment 1. The following applies: ATCC9144, S. aureus ATCC 9144, Gram +, read-out: Min. inhib. concentr. (MIC). Here is the method: as §1, §2
Test [11] concerns Proteus mirabilis IFO 3849. The test can be described thus: MIC, Experiment 1. To be noted: IFO3849, P. mirabilis IFO 3849, Gram -, read-out: Min. inhib. concentr. (MIC). The protocol: as §1, §2
A further test has as its system Enterobacter cloacae 963. The test can be described thus: MIC, Experiment 1. The following applies: E. cloacae 963, Gram -, read-out: Min. inhib. concentr. (MIC). Here is the method:
as §1, §2

Test [12] concerns Streptococcus pneumoniae IID 552. In words: MIC, Experiment 1. To be noted: IID552, S. pneumoniae IID 552, Gram +, agar with 5% defibrinated horse blood, read-out: Min. inhib. concentr. (MIC). The protocol:
as §1, §2

For test [13], the system named is Streptococcus pyogenes Su. The test can be described thus: MIC, Experiment 1. The following applies: S. pyogenes Su, Gram +, agar with 5% defibrinated horse blood, read-out: Min. inhib. concentr. (MIC). Here is the method: as §1, §2
The test system of test [14] is Streptococcus pyogenes Cook. The test can be described thus: MIC, Experiment 1. To be noted: S. pyogenes Cook, Gram +, agar with 5% defibrinated horse blood, read-out: Min. inhib. concentr. (MIC). The protocol: as §1, §2
The test system of test [15] is Staphylococcus aureus IID 803. In words: MIC, Experiment 1. To be noted: IID803, S. aureus IID 803, Gram +, read-out: Min. inhib. concentr. (MIC). The protocol: as §1, §2
The test system of test [16] is Staphylococcus aureus MS-353. In words: MIC, Experiment 1. To be noted: MS353, S. aureus MS-353, Gram +, read-out: Min. inhib. concentr. (MIC). Here is the method: as §1, §2
In test [17] the test system is Streptococcus pyogenes Sv. The test can be described thus: MIC, Experiment 1. To be noted: S. pyogenes Sv, Gram +, agar with 5% defibrinated horse blood, read-out: Min. inhib. concentr. (MIC). Here is the method: as §1, §2
For test [18], the system named is Micrococcus luteus ATCC 9341. The test can be described thus: MIC, Experiment 1. To be noted: ATCC9341, M. luteus ATCC 9341, Gram +, read-out: Min. inhib. concentr. (MIC). Here is the method: as §1, §2
Test [19] deals with Staphylococcus aureus FDA 243. The test can be described thus: MIC, Experiment 1. To be noted: FDA243, S. aureus FDA 243, Gram +, read-out: Min. inhib. concentr. (MIC). The protocol:
as §1, §2

Test [20] relates to clinically isolated Staphylococcus epidermidis. The test can be described thus: In vitro antibacterial activity against clinical isolates, Experiment 2. The following applies: Staphylococcus epidermidis; for MIC90: 90% of strains, read-out: MIC90. The protocol: The above solutions were then diluted with sterilized distilled water to prepare a standard solution with a concentration of the test compound: 1000 μg/ml each.
For the preculture of each microorganism, there was used as the medium a sensitivity test broth (manufactured by Nissui Seiyaku K. K., Japan), and for the measurement of MIC, there was used a sensitivity test agar medium (manufactured by Nissui Seiyaku K. K.).
The clinically isolates used above were isolated from Nov. 1988 to Jun. 1989 and were obtained from Research Section, Tokyo Clinical Research Center.

[21] abbreviates: 25 clinical strains S. epidermidis.

By MIC is commonly meant the smallest concentration in the dilution series that meets the test's criterion for growth inhibition. A word on the MIC50: it is an inhibitory concentration at the 50% level, which refers to growth in some studies and to a panel of isolates in others. The term MIC90 denotes the lowest concentration that inhibits either 90% of growth or 90% of the strains tested, depending on the study.

For `CC1CN(c2c(F)cc3c(=O)c(C(=O)O)c4scc5n4c3c2N(C)C5)CCO1` (stereo not drawn) [Compound (A), 9,1-(Methylimino)methano-7-fluoro-8-(2-methylmorpholino)-5-oxo-5H-thiazolo[3,2-a]quinoline-4-carboxylic acid], the MIC in test [1] is 0.013 µg/mL (≈ 0.0322 µM); in [2] it was at most 0.006 µg/mL; in [3], 0.1 µg/mL (≈ 0.248 µM); in test [4], 0.013 µg/mL (≈ 0.0322 µM); in [5], at most 0.006 µg/mL; in test [6] it was 0.013 µg/mL (≈ 0.0322 µM). The MIC is 0.39 µg/mL (≈ 0.967 µM) in test [7]; 0.013 µg/mL (≈ 0.0322 µM) in the test with Bacillus cereus IAM 1029; 0.05 µg/mL (≈ 0.124 µM) in test [8]; at most 0.006 µg/mL in [9]; 0.013 µg/mL (≈ 0.0322 µM) in test [10]; 0.2 µg/mL (≈ 0.496 µM) in [11]. Also, the MIC with Enterobacter cloacae 963 was 0.2 µg/mL (≈ 0.496 µM); in [12], 0.013 µg/mL (≈ 0.0322 µM); in [13] it was 0.025 µg/mL (≈ 0.062 µM); in test [14], 0.025 µg/mL (≈ 0.062 µM); in test [15], at most 0.006 µg/mL; in test [16], 0.013 µg/mL (≈ 0.0322 µM). The MIC was 0.025 µg/mL (≈ 0.062 µM) in [17], 0.1 µg/mL (≈ 0.248 µM) in [18], at most 0.006 µg/mL in test [19] and 0.006 to 0.39 µg/mL (≈ 0.0149 to 0.967 µM) in test [20] (setting [21]). The MIC50 in test [20] (25 clinical strains S. epidermidis, 50% of strains, read-out: MIC50) was 0.013 µg/mL (≈ 0.0322 µM). Moreover, the MIC90 in test [20] (setting [21]) turned out to be 0.2 µg/mL (≈ 0.496 µM).
In the case of `CN1Cc2csc3c(C(=O)O)c(=O)c4cc(F)c(N5CCOC(CO)C5)c1c4n23` (stereo not drawn) [Compound (B), 9,1-(Methylimino)methano-7-fluoro-8-(2-hydroxymethylmorpholino)-5-oxo-5H-thiazolo[3,2-a]quinoline-4-carboxylic acid], the MIC is 0.025 µg/mL (≈ 0.0596 µM) in [1]; at most 0.006 µg/mL in test [2]; 0.1 µg/mL (≈ 0.238 µM) in test [3]; 0.013 µg/mL (≈ 0.031 µM) in test [4]; at most 0.006 µg/mL in [5]; 0.013 µg/mL (≈ 0.031 µM) in test [6]. For the same compound, the MIC in test [7] is 0.39 µg/mL (≈ 0.93 µM); with Bacillus cereus IAM 1029, 0.025 µg/mL (≈ 0.0596 µM); in [8] it was 0.05 µg/mL (≈ 0.119 µM); in test [9], at most 0.006 µg/mL; in test [10], at most 0.006 µg/mL; in test [11], 0.39 µg/mL (≈ 0.93 µM). The MIC was determined as 0.2 µg/mL (≈ 0.477 µM) in the test on Enterobacter cloacae 963; 0.025 µg/mL (≈ 0.0596 µM) in test [12]; 0.025 µg/mL (≈ 0.0596 µM) in [13]; 0.025 µg/mL (≈ 0.0596 µM) in test [14]; 0.013 µg/mL (≈ 0.031 µM) in test [15]; 0.025 µg/mL (≈ 0.0596 µM) in [16]. Moreover, the MIC in test [17] is 0.05 µg/mL (≈ 0.119 µM); in [18], 0.1 µg/mL (≈ 0.238 µM); in [19] it was at most 0.006 µg/mL; in test [20] (setting [21]) it was 0.006 to 0.78 µg/mL (≈ 0.0143 to 1.86 µM). The MIC50 in [20] was found to be 0.025 µg/mL (≈ 0.0596 µM). For the same compound, the MIC90 in test [20] (setting [21]) was found to be 0.39 µg/mL (≈ 0.93 µM).
